Measured values taken from patent publication US7803830B2, “3-amino-1-arylpropyl indoles and AZA-substituted indoles and uses thereof” (Roche Palo Alto LLC, priority 2005, dated 2010).
Where a name gives a salt, the structure may show the parent alone.

`CNCC[C@H](c1ccccc1)c1cccc2cn[nH]c12` (as salt: TFA) [compound 55, [(R)-3-(1H-Indazol-7-yl)-3-phenyl-propyl]-methyl-amine] and `CNCC[C@@H](c1ccccc1)c1cccc2cn[nH]c12` (as salt: TFA) [compound 56, [(S)-3-(1H-Indazol-7-yl)-3-phenyl-propyl]-methyl-amine] cannot be ordered by melting point: 61.9 to 65.7 °C for the first, 62 to 68.1 °C for the second.

First: CNCCC(c1ccccc1)c1cccc2[nH]ncc12 (stereo not shown) (as salt: HCl) [compound 49, [3-(1H-Indazol-4-yl)-3-phenyl-propyl]-methyl-amine]
Second: CNCCC(c1ccccc1)c1ccc2[nH]nc(C)c2c1 (stereo not shown) (as salt: TFA) [compound 58, Methyl-[3-(3-methyl-1H-indazol-5-yl)-3-phenyl-propyl]-amine]
The melting point of the first is higher: 130.6 to 133.1 °C for the first, 64.5 to 66 °C for the second.

Compared with `CNCCC(c1ccc2[nH]ccc2c1)c1ccc2[nH]ccc2c1` [compound 111, [3,3-Bis-(1H-indol-5-yl)-propyl]-methyl-amine], `CNCCC(c1ccc2[nH]ccc2c1)c1ccc2nccnc2c1` (stereo not shown) [compound 123, [3-(1H-lndol-5-yl)-3-quinoxalin-6-yl-propyl]-methyl-amine] is lower in melting point: 142 to 152 °C for the first, 60.3 to 62 °C for the second.

Compared with `CNCCC(c1cccc(Cl)c1)c1ccc2cc[nH]c2c1` (stereo not shown) (as salt: HCl) [compound 36, [3-(3-Chloro-phenyl)-3-(1H-indol-6-yl)-propyl]-methyl-amine], `CNCCC(c1cnc2ccccc2c1)c1ccc2[nH]ccc2c1` (stereo not shown) [compound 137, [3-(1H-Indol-5-yl)-3-quinolin-3-yl-propyl]-methyl-amine] is lower in melting point: 62 to 63 °C for the first, 56 to 58 °C for the second.

Molecule `NCCC(c1ccc2ncccc2c1)c1ccc2[nH]ccc2c1` (stereo not shown) [compound 120, 3-(1H-Indol-5-yl)-3-quinolin-6-yl-propylamine] has a melting point of 60.9 to 62.9 °C.

With `CNCCC(c1ccc2cc[nH]c2c1)c1ccccn1` (stereo not shown) (as salt: HCl) (hydrate or solvate) [compound 21] the melting point was greater than 300 °C.
